# Measurements from patent US20230414619A1 (priority 2020, published 2023).
# Tests used:
# SARS-CoV-2 = settings: emetine inhibition of Rps14; pladienolide inhibition of SF3B1; cited from earlier work
# [1] = tested on: PBMCs from a COVID-19 patient; type: cell-based, human
SMILES,SARS-CoV-2 replication (SARS-CoV-2),differentially expressed host factors necessary for SARS-CoV-2 pathogenesis (siRNA and CRISPR screens) [1],differentially expressed host interactors of SARS-CoV-2 viral RNA [1],differentially expressed host proteins that interact with SARS-CoV-1/2 and MERS encoded proteins [1],downregulated proteins following treatment [1],upregulated proteins following treatment [1],"proteins differentially expressed following treatment ([1]; of 5566 proteins quantified, ANOVA P value<0.05, 0-24 h treatment)","differentially expressed proteins whose turnover is G9a dependent in ET macrophages ([1]; out of 292, 78 upregulated, 74 downregulated)"
CC[C@H](O)[C@@H](C)[C@H]1O[C@@H]1C[C@H](C)/C=C/C=C(\C)[C@H]1OC(=O)C[C@H](O)CC[C@@](C)(O)[C@@H](OC(C)=O)/C=C/[C@@H]1C [pladienolide],significantly reduced,,,,,,,
CC[C@H]1CN2CCc3cc(OC)c(OC)cc3[C@@H]2C[C@@H]1C[C@H]1NCCc2cc(OC)c(OC)cc21 [emetine],significantly reduced,,,,,,,
COc1cc2c(NC3CCN(C(C)C)CC3)nc(N3CCC(F)(F)CC3)nc2cc1OCCCN1CCCC1 [UNC0642],,8,2,129,151,141,292,152
